The test system of test [1] is A2058 cells. As to the kind of experiment: Ubiquitination proteomics (UbiScan, LC-MS/MS) of A2058 cells. The settings on record: 20 nM AZD6244, 8 hrs vs DMSO. The format is cell-based, human. As to the method: (A) GFP and GFP-GR plasmids were co-transfected into HEK293T cells followed by treatments with 20 nM AZD6244, 20 μM U0126, or 200 nM 17-DMAG for 4 hr. (B) GFP-GR plasmids were co-transfected into HEK293T cells with HA-Ub-K48 plasmids, which encode a mutant ubiquitin that can be conjugated to protein substrates only via lysine 48. Following treatments with 20 nM AZD6244 or 200 nM 17-DMAG for 4 hr, GFP-GR proteins were precipitated and ubiquitination was detected using anti-HA antibodies. (C) Denatured firefly luciferases were incubated with lysates of A2058 cells treated with DMSO or 20 nM AZD6244 (mean±SD, n=4, ANOVA). (D) A2058 cells were treated with 20 nM AZD6244, and ubiquitinated proteins were detected in both detergent-soluble and -insoluble fractions using Lys48-specific ubiquitin antibodies. […] (G) Experimental procedures of MS-based quantitation of ubiquitinated peptides, two technical replicates per treatment. […] (Q) Endogenous RPL15 and RPL3 proteins were detected in A2058 cells treated with 20 nM AZD6244 alone or co-treated with 500 nM MG132. (R) Endogenous RPL15 and RPL3 proteins were detected in A2058 cells stably expressing LacZ or HSF1^S326D with AZD6244 treatment. […]
A2058 cells were grown in 150 mm culture dishes and treated with DMSO or 20 nM AZD6244 for 8 hrs. […] Two technical replicates were analyzed for each treatment.

In test [2] the test system is A2058 cells. Briefly: Experimental melanoma metastasis, i.v. luciferase-expressing A2058 cells in NOD/SCID mice. The settings on record: n=10 per group. The format is in vivo. As to the method:
FIGS. 6A-N show combined MEK and proteasome inhibition exerts potent tumor-suppressive effects. (A) After treatments with 20 nM AZD6244, 100 nM Bortezomib, or both for 24 hr, viable cells were quantitated by CellTiter® Blue (mean±SD, n=6, ANOVA). (B and C) 1×10^6 A2058 cells were s.c. injected into NOD/SCID mice. After 7 days, mice were treated with DMSO, 5 mg/Kg AZD6244, 0.5 mg/Kg Bortezomib, or the combination via i.p. injection three times a week. Tumor volumes were measured using a caliper weekly (mean±SEM, ANOVA). Tumor growth curves were fitted to exponential growth models to derive tumor-doubling time (DT). Kaplan-Meier survival curve was plotted for each group (Log-rank test). (D) Proteins were detected by immunoblotting, 3 tumors per group. (E) Tumor lysates were used to quantitate AOs, 5 tumors per group (mean±SD, n=3, ANOVA). (F) Tumor lysates were used to seed Aβ1-42 peptides, 5 tumors per group (mean±SD, n=3, ANOVA). (G-H) Tumor sections were stained with CR, 5 tumors per group. […] Total CR fluorescence in each field was quantitated using ImageJ and normalized against total nuclei (median, n=50, ANOVA). […] Body weights were monitored weekly (mean±SD, n=10, ANOVA). […]
A2058 cells were s.c. injected into the left flanks of 9-week-old female NOD.CB17-Prkdc/J (NOD/SCID) mice (The Jackson Laboratory). […] Tumor volumes were calculated following the formula 4/3πR^3. […]

One compound from patent US20180369203A1, “METHODS OF TREATING CANCER BY ADMINISTERING A MEK INHIBITOR IN COMBINATION WITH A PROTEASOME INHIBITOR” (The Jackson Laboratory, priority 2015, published 2018) can be followed below.

Molecules are shown by their SMILES.

As for `Cn1cnc2c(F)c(Nc3ccc(Br)cc3Cl)c(C(=O)NOCCO)cc21` [AZD6244, selumetinib], in test [1], the “increase in ubiquitination of RPL3” value is reported as 13.7 fold and the “increase in ubiquitination of TOR1AIP2” value is given as 61.0 fold. The “mice with luminescence detected by in vivo imaging” value in test [2] was 40%.
